# Reference: ChEMBL document CHEMBL1144464, “Mutations in fusA associated with posttherapy fusidic acid resistance in Clostridium difficile” (2007)
# Tests used:
# Assay type in all cases: functional
# Clostridioides difficile [1] = assay: Antibacterial activity against fusidic acid resistant Clostridium difficile 72:2 isolate with fusA S116L and A374V mutation after 8 to 13 days
# Clostridioides difficile [2] = assay: Antibacterial activity against fusidic acid resistant Clostridium difficile 62:1 isolate after 1 day; conditions: 24 h
# Clostridioides difficile [3] = assay: Antibacterial activity against fusidic acid resistant Clostridium difficile 248:3 isolate with fusA H455R mutation after 35 to 40 days
# Clostridioides difficile [4] = assay: Antibacterial activity against fusidic acid resistant Clostridium difficile 51:1 isolate after 1 day; conditions: 24 h
# Clostridioides difficile [5] = assay: Antibacterial activity against fusidic acid resistant Clostridium difficile 248:1 isolate after 1 day; conditions: 24 h
# Clostridioides difficile [6] = assay: Antibacterial activity against fusidic acid resistant Clostridium difficile 73:1 isolate after 1 day; conditions: 24 h
# Clostridioides difficile [7] = assay: Antibacterial activity against fusidic acid resistant Clostridium difficile 100:2 isolate with fusA V119A mutation after 8 to 13 days
# Clostridioides difficile [8] = assay: Antibacterial activity against fusidic acid resistant Clostridium difficile 57:1 isolate after 1 day; conditions: 24 h
# Clostridioides difficile [9] = assay: Antibacterial activity against fusidic acid resistant Clostridium difficile 107:1 isolate after 1 day; conditions: 24 h
# Clostridioides difficile [10] = assay: Antibacterial activity against fusidic acid resistant Clostridium difficile 58:2 isolate with fusA H455Q mutation after 8 to 13 days
# Clostridioides difficile [11] = assay: Antibacterial activity against fusidic acid resistant Clostridium difficile 63:2 isolate with fusA T434I after 8 to 13 days
# Clostridioides difficile [12] = assay: Antibacterial activity against fusidic acid resistant Clostridium difficile 26:3 isolate with fusA M16I and H455N mutation after 35 to 40 days
# Clostridioides difficile [13] = assay: Antibacterial activity against fusidic acid resistant Clostridium difficile 63:1 isolate after 1 day; conditions: 24 h
# Clostridioides difficile [14] = assay: Antibacterial activity against fusidic acid resistant Clostridium difficile 58:1 isolate with fusA H455Q mutation after 1 day; conditions: 24 h
# Clostridioides difficile [15] = assay: Antibacterial activity against fusidic acid resistant Clostridium difficile 73:2 isolate with fusA I459R mutation after 8 to 13 days
# Clostridioides difficile [16] = assay: Antibacterial activity against fusidic acid resistant Clostridium difficile 57:3 isolate with fusA S116L and A374V mutation after 35 to 40 days
# Clostridioides difficile [17] = assay: Antibacterial activity against fusidic acid resistant Clostridium difficile 49:1 isolate after 1 day; conditions: 24 h
# Clostridioides difficile [18] = assay: Antibacterial activity against fusidic acid resistant Clostridium difficile 26:2 isolate with fusA D432N mutation after 8 to 13 days
# Clostridioides difficile [19] = assay: Antibacterial activity against fusidic acid resistant Clostridium difficile 62:2 isolate after 8 to 13 days
# Clostridioides difficile [20] = assay: Antibacterial activity against fusidic acid resistant Clostridium difficile 107:3 isolate with fusA A459R mutation after 35 to 40 days
# Clostridioides difficile [21] = assay: Antibacterial activity against fusidic acid resistant Clostridium difficile 26:1 isolate after 1 day; conditions: 24 h
# Clostridioides difficile [22] = assay: Antibacterial activity against fusidic acid resistant Clostridium difficile 62:3 isolate with fusA A375 deletion after 35 to 40 days
# Clostridioides difficile [23] = assay: Antibacterial activity against fusidic acid resistant Clostridium difficile 51:2 isolate with fusA S449P mutation after 8 to 13 days
# Clostridioides difficile [24] = assay: Antibacterial activity against fusidic acid resistant Clostridium difficile 49:2 isolate after 8 to 13 days
# Clostridioides difficile [25] = assay: Antibacterial activity against fusidic acid resistant Clostridium difficile 72:1 isolate after 1 day; conditions: 24 h
# Clostridioides difficile [26] = assay: Antibacterial activity against fusidic acid resistant Clostridium difficile 49:3 isolate with fusA S116L and A374V mutation after 35 to 40 days
# Clostridioides difficile [27] = assay: Antibacterial activity against fusidic acid resistant Clostridium difficile 100:1 isolate after 1 day; conditions: 24 h
compound,measurement,setting,value
CC(=O)O[C@H]1C[C@@]2(C)[C@@H](C[C@@H](O)[C@H]3[C@@]4(C)CC[C@@H](O)[C@@H](C)[C@@H]4CC[C@@]32C)/C1=C(\CCC=C(C)C)C(=O)O [FUSIDIC ACID],MIC,Clostridioides difficile [1],> 256 µg/mL
same,MIC,Clostridioides difficile [2],0.25 µg/mL
same,MIC,Clostridioides difficile [3],> 256 µg/mL
same,MIC,Clostridioides difficile [4],0.25 µg/mL
same,MIC,Clostridioides difficile [5],0.125 µg/mL
same,MIC,Clostridioides difficile [6],0.5 µg/mL
same,MIC,Clostridioides difficile [7],> 256 µg/mL
same,MIC,Clostridioides difficile [8],0.38 µg/mL
same,MIC,Clostridioides difficile [9],0.19 µg/mL
same,MIC,Clostridioides difficile [10],> 256 µg/mL
same,MIC,Clostridioides difficile [11],64 µg/mL
same,MIC,Clostridioides difficile [12],> 256 µg/mL
same,MIC,Clostridioides difficile [13],0.25 µg/mL
same,MIC,Clostridioides difficile [14],> 256 µg/mL
same,MIC,Clostridioides difficile [15],> 256 µg/mL
same,MIC,Clostridioides difficile [16],> 256 µg/mL
same,MIC,Clostridioides difficile [17],0.25 µg/mL
same,MIC,Clostridioides difficile [18],> 256 µg/mL
same,MIC,Clostridioides difficile [19],0.25 µg/mL
same,MIC,Clostridioides difficile [20],> 256 µg/mL
same,MIC,Clostridioides difficile [21],0.38 µg/mL
same,MIC,Clostridioides difficile [22],4 µg/mL
same,MIC,Clostridioides difficile [23],> 256 µg/mL
same,MIC,Clostridioides difficile [24],0.25 µg/mL
same,MIC,Clostridioides difficile [25],0.25 µg/mL
same,MIC,Clostridioides difficile [26],> 256 µg/mL
same,MIC,Clostridioides difficile [27],0.38 µg/mL
